# Patent US9211340B2, “Means and methods of enhancing delivery to biological systems” (priority 2006, dated 2015)
# No end group written: not given here.
# Tests used:
# SCF = SCF transport to the cell surface (SCF staining); type: cell-based; details: 100 μM peptide, 16 hours; FIG. 5
# Description: FIG. 5: Arginine-ester peptide delivery and inhibition of SCF transport to the cell surface (16 hours). Left: No peptide; normal SCF membrane staining.
# Cos-7 cells were plated overnight on glass coverslips in 10% serum containing DMEM. For the analysis, we suspended the peptide at 1 mM in PBS (phosphate buffered saline) which was diluted to final concentration in full medium. We washed the cells after 15 or 30 minutes and washed once with PBS and fixed with paraformaldehyed (4%) for 10 minutes and took images in PBS.
# SCF-reporter construct = assay: ER-to-Golgi transport of SCF-reporter construct (Golgi-staining of cells); type: cell-based; details: 2-hours pretreatment and 1-hour ER-to Golgi transport; FIG. 4
substance,measurement,setting,value
Arginine-ester peptide: 20-mer SCF peptide (SEQ ID NO: 1) with glutamate carboxylates esterified with a guanidinium alkanol (NEEDNEISMLQEKEREFQEV; also: glutamate carboxylates esterified with a guanidinium alkanol (places and alkanol not given here); listed as Homo sapiens),inhibition of SCF transport to the cell surface (SCF staining),SCF,shift to intracellular SCF staining
same,% of cells exhibiting Golgi-staining of reporter construct (export of SCF-reporter construct),SCF-reporter construct,block export of a SCF-reporter construct
